Reference: patent US20200338158A1, “Therapeutic Drug for Non-Alcoholic Fatty Liver Disease” (Shanghai Hep Pharmaceutical Co., Ltd., priority 2017, published 2020)
Entries after “also recorded” stand apart in the source; their conditions may differ.

Experiments:
Assay type in all cases: in vivo
[1] = test system: C57BL6 mice; assay: Body weight and general observation of abdominal fat, mouse NASH model
Text: (§1) In this example, a mouse nonalcoholic steatohepatitis (NASH) model was used to evaluate the effect of hepalatide (L47) on pathological changes and metabolism level of NASH, and to determine whether L47 can improve the pathological changes of NASH, so as to provide reference for pharmacodynamic evaluation of L47 before clinical treatment.
Each experimental group was provided with sufficient feed and water daily with free diet, and water was changed twice a week for sugar water-added group, and the remaining amount of feed was weighed and added to 150 g each week for each group in addition to the normal control group, and body weight of mice was weighed each week for each group.
At week 8 and week 16, liver was separated by dissection after anesthesia and blood collection, and pathological changes of liver tissues and accumulation of abdominal fat were grossly observed by the naked eye.

[2] = test system: C57BL6 mice; assay: Liver histology (HE, Oil Red O, Masson, TUNEL staining), mouse NASH model; settings: for liver Masson staining (fibrous cords) / liver Oil Red O staining (fat accumulation) / liver Masson staining (fibrous depositions): vs model group
Protocol: as §1
At week 8 and week 16, hematoxylin eosin (HE) staining, trichrome staining (Masson staining), Oil Red 0 staining and apoptosis (TUNEL) staining were performed on the liver tissue sections of mice.

[3] = test system: C57BL6 mice; assay: Blood (serum) biochemistry test, mouse NASH model
Text: as §1
Total cholesterol (TC), triglyceride (TG), total bilirubin (TBIL), high-density lipoprotein cholesterol (HDL-C), low-density lipoprotein cholesterol (LDL-C), alkaline phosphatase (ALP), albumin (ALB), aspartate aminotransferase (AST) and alanine aminotransferase (ALT) were provided by Shanghai Adicon Company and tested by automatic biochemical analyzer.
Total bile acid (TBA), very low density lipoprotein (VLDL): provided by Nanjing Jiancheng Bioengineering Institute.
At week 8 and week 16, blood was taken from fasted mice (fasted for 12 hours) after anesthesia, and levels of serum TG, TC, ALB, ALP, ALT, AST, HDL-C, LDL-C, VLDL, TBIL, TBA, insulin (Ins) were measured.

[4] = test system: C57BL6 mice; assay: Liver biochemistry test, mouse NASH model
Text: as §1
Hydroxyproline and free fatty acid (FFA) kits (Cat No.: A030-3 and A042-1, respectively) were provided by Nanjing Jiancheng Bioengineering Research Institute;
Triglyceride (TG) and cholesterol (TC) (Cat No.: E1013-105 and E1015 respectively) were provided by Applygen Technologies Inc.
At week 8 and week 16, liver was taken and levels of TG, TC, free fatty acid (FFA), hydroxyproline (HYP) were measured.

[5] = week 8, treatment groups (HL1, HH1)
[6] = week 16, HH1 (L47 30 mg/kg*2/d s.c. from start)
[7] = week 16, HH2 (L47 30 mg/kg*2/d s.c., started after 8 weeks)
[8] = week 16, HL1 (L47 10 mg/kg*2/d s.c. from start)
[9] = week 16, HL2 (L47 10 mg/kg*2/d s.c., started after 8 weeks)
[10] = week 8, treatment groups (HL1, HH1) vs model group
[11] = week 8, treatment groups vs model group
[12] = week 8, vs model group, HL1 (L47 10 mg/kg*2/d s.c. from start)
[13] = week 16, treatment groups vs model group
[14] = week 16, treatment groups vs model group (conclusions)
[15] = week 16, vs model group, HH2 (L47 30 mg/kg*2/d s.c., started after 8 weeks), 30 mg/kg
[16] = week 16, vs model group, HL1 (L47 10 mg/kg*2/d s.c. from start)
[17] = week 16, vs model group, HL2 (L47 10 mg/kg*2/d s.c., started after 8 weeks), p<0.05
[18] = week 16, vs model group, high dose group 1 (L47 30 mg/kg*2/d s.c. from start), 30 mg/kg

Substance: hepalatide [L47]
- body weight ([1]; week 8, L47 treatment groups vs model group): significantly decreased
- abdominal fat deposition (general observation) ([1]; week 8, treatment groups): significant effect
- abdominal fat deposition (general observation) ([1]; week 16, among each group): no significant difference
- body weight ([1]; week 16, low dose group 2): decrease
- body weight ([1]; week 16, treatment groups except low dose group 2, vs model group): no significant difference
- liver HE staining (fat vacuoles, inflammatory cells) ([2]; week 8, low and high dose groups (HL1, HH1)): only less and smaller fat vacuoles were formed, with less inflammatory cells
- liver Oil Red O staining (fat droplet vacuoles) [2, 5]: only smaller and less vacuoles
- liver TUNEL staining (apoptosis) [2, 5]: effectively improved
- TUNEL semi-quantitative counting (number of apoptotic bodies) ([2]; week 8, treatment groups (HL1, HH1) vs model group, p<0.001, p<0.001): significantly decreased
- liver HE staining (steatosis, inflammatory cell infiltration) [2, 6]: severe steatosis
- liver TUNEL staining (apoptosis) [2, 6]: no improvement
- liver TUNEL staining (apoptosis) [2, 7]: effectively improved
- TUNEL semi-quantitative counting (number of apoptotic bodies) ([2]; week 16, HH2 (L47 30 mg/kg*2/d s.c., started after 8 weeks), p<0.01): significantly decreased
- liver TUNEL staining (apoptosis) [2, 8]: no improvement
- liver TUNEL staining (apoptosis) [2, 9]: effectively improved
- TUNEL semi-quantitative counting (number of apoptotic bodies) ([2]; week 16, HL2 (L47 10 mg/kg*2/d s.c., started after 8 weeks), p<0.01): significantly decreased
- liver HE staining (steatosis, inflammatory response) ([2]; week 16, other groups (HL1, HL2, HH2)): slight steatosis and inflammatory response
- liver Masson staining (fibrous cords) [2, 6]: no significant difference
- liver Oil Red O staining (fat accumulation) [2, 6]: only slightly reduced
- liver Masson staining (fibrous depositions) [2, 7]: decreased
- liver Oil Red O staining (fat accumulation) [2, 7]: significantly reduced
- liver Masson staining (fibrous cords) [2, 8]: no significant difference
- liver Oil Red O staining (fat accumulation) [2, 8]: only slightly reduced
- liver Masson staining (fibrous depositions) [2, 9]: decreased
- liver Oil Red O staining (fat accumulation) [2, 9]: significantly reduced
- serum LDL-C level ([3]; at week 20 (so in the source), HH1 (L47 30 mg/kg*2/d s.c. from start), p<0.01): decreased
- serum LDL-C level ([3]; at week 20 (so in the source), HL1 (L47 10 mg/kg*2/d s.c. from start), p≤0.001): decreased
- serum HDL-C level ([3]; at week 20 (so in the source), treatment groups except HH2, vs model group, p<0.01): decreased
- serum LDL-C level ([3]; week 8, HH1 (L47 30 mg/kg*2/d s.c. from start)): decreased
- serum TC level ([3]; week 8, HL1 (L47 10 mg/kg*2/d s.c. from start), p<0.05): decreased significantly
- serum AST level [3, 10]: decreasing trend; also recorded: decreased
- serum TC level [3, 10]: significantly decreased
- serum TG level [3, 10]: significantly decreased
- serum ALT level ([3]; week 8, treatment groups (HL1, HH1) vs model group, p≤0.001): significantly decreased
- serum ALB level [3, 11]: decreased
- serum ALP level [3, 11]: no significant difference
- serum HDL level [3, 11]: no significant difference
- serum LDL level [3, 11]: decreased
- serum VLDL level [3, 11]: no significant difference
- serum HDL-C level [3, 12]: decreased
- serum LDL-C level [3, 12]: decreased
- serum ALB level ([3]; week 16, HH2 (L47 30 mg/kg*2/d s.c., started after 8 weeks), p<0.001): slightly decreased
- serum ALB level ([3]; week 16, HL2 (L47 10 mg/kg*2/d s.c., started after 8 weeks), p<0.001): slightly decreased
- serum ALP level ([3]; week 16, among the groups): no significant difference
- serum ALB level ([3]; week 16, other groups (HL1, HH1)): no difference
- serum VLDL level ([3]; week 16, other groups except HL2 (HL1, HH1, HH2) vs model group): increased
- serum TC level ([3]; week 16, treatment groups (HL1, HH1, HL2, HH2) vs model group, p<0.001, p<0.001, p≤0.001, p<0.05): significantly decreased
- serum TG level [3, 13]: did not decrease; also recorded: no significant difference
- serum HDL level [3, 14]: decreased
- serum LDL level [3, 14]: decreased
- serum VLDL level [3, 14]: no significant difference
- serum ALT level [3, 15]: decreasing trends; also recorded: decreased significantly
- serum AST level [3, 15]: decreasing trends; also recorded: decreased significantly
- serum ALT level [3, 16]: did not decrease
- serum AST level [3, 16]: did not decrease
- serum ALT level [3, 17]: significantly decreased
- serum AST level [3, 17]: significantly decreased
- serum ALT level [3, 18]: did not decrease; also recorded: increasing trends
- serum AST level [3, 18]: did not decrease; also recorded: increasing trends
- liver FFA level ([4]; week 8, high dose group vs model group, p<0.05): statistical significance
- liver FFA level [4, 10]: decreasing trends; also recorded: decreased significantly
- liver hydroxyproline level [4, 10]: decreasing trends; also recorded: reduced
- liver TC level ([4]; week 8, treatment groups (HL1, HH1) vs model group, p<0.001, p≤0.001): significantly decreased
- liver TG level ([4]; week 8, treatment groups (HL1, HH1) vs model group, p≤0.001, p<0.001): significantly decreased; also recorded: decreased significantly
- liver hydroxyproline level [4, 6]: higher
- liver hydroxyproline level [4, 8]: higher
- liver TC level ([4]; week 16, treatment groups (HL1, HH1, HL2, HH2) vs model group, p<0.001 each): significantly decreased
- liver FFA level [4, 13]: decreased; also recorded: decreasing trends
- liver TG level ([4]; week 16, vs model group, HH1 (L47 30 mg/kg*2/d s.c. from start)): decreasing trends
- liver hydroxyproline level ([4]; week 16, vs model group, HH2 (L47 30 mg/kg*2/d s.c., started after 8 weeks), more significant, p<0.05): decreased
- liver TG level ([4]; week 16, vs model group, HH2 (L47 30 mg/kg*2/d s.c., started after 8 weeks), p<0.05): significantly decreased
- liver TG level [4, 16]: decreasing trends
- liver hydroxyproline level ([4]; week 16, vs model group, HL2 (L47 10 mg/kg*2/d s.c., started after 8 weeks)): decreased
- liver TG level ([4]; week 16, vs model group, HL2 (L47 10 mg/kg*2/d s.c., started after 8 weeks), p<0.01): significantly decreased
